According to patent publication US20220056018A1, “SREBP INHIBITORS COMPRISING A THIOPHENE CENTRAL RING” (Capulus Therapeutics, LLC, priority 2019, published 2022):

Key:
Assay in all cases: Cancer cell growth inhibition
Assay type in all cases: cell-based
[1] = test system: 786O; conditions: Homo sapiens, 786-0; 786O (kidney), 72 hr treatment
Method: (§1) The ability of select compounds to inhibit cell growth in various cancer cell lines are evaluated. […] The cell lines shown in Table 2 have reduced growth by at least 50% at 10 uM or lower over 72 hr treatment in growth media. The cell lines shown in Table 3 have reduced growth by at least 50% with an IC50 greater than 10 uM.
(§2) Six 10-fold compound dilutions are prepared in DMSO (e.g. 10 mM, 1 mM, 100 uM, 10 uM, 1 uM, and 0.1 uM). Single data points are acquired for each concentration. The final concentration of DMSO is 0.1%. The duration of the treatment is 72 hr. Growth inhibition is measured using Sulforhodamine B in a protein staining assay. Activity of the agents is determined by evaluation the following parameters: IC50, GI50, IC10, TGI, LC50, IC90, and GI90 (where these values can be calculated).

[2] = test system: A431; conditions: Homo sapiens, A-431; A431 (skin), 72 hr treatment
Method: as §1, §2

[3] = test system: ACHN; conditions: Homo sapiens; ACHN (kidney), 72 hr treatment
Method: as §1, §2

[4] = test system: ASPC1; conditions: Homo sapiens; ASPC1 (pancreas), 72 hr treatment
Method: as §1, §2

[5] = test system: BXPC3; conditions: Homo sapiens, BXPC-3; BXPC3 (pancreas), 72 hr treatment
Method: as §1, §2

[6] = test system: CACO2; conditions: Homo sapiens, Caco-2; CACO2 (colon), 72 hr treatment
Method: as §1, §2

[7] = test system: DLD1; conditions: Homo sapiens, DLD-1; DLD1 (colon), 72 hr treatment
Method: as §1, §2

[8] = test system: HELA; conditions: Homo sapiens; HELA (endometrial), 72 hr treatment
Method: as §1, §2

[9] = test system: HEPG2; conditions: Homo sapiens; HEPG2 (liver), 72 hr treatment
Method: as §1, §2

[10] = test system: J82; conditions: Homo sapiens; J82 (bladder), 72 hr treatment
Method: as §1, §2

[11] = test system: JAR; conditions: JAR (placenta), 72 hr treatment
Method: as §1, §2

[12] = test system: JIMT1; conditions: Homo sapiens, JIMT-1; JIMT1 (breast), 72 hr treatment
Method: as §1, §2

[13] = test system: KASUMI-1; conditions: Homo sapiens; KASUMI-1 (hematological), 72 hr treatment
Method: as §1, §2

[14] = test system: LOVO; conditions: Homo sapiens; LOVO (colon), 72 hr treatment
Method: as §1, §2

[15] = test system: MCF7; conditions: Homo sapiens; MCF7 (breast), 72 hr treatment
Method: as §1, §2

[16] = test system: MDAMB231; conditions: Homo sapiens, MDA-MB-231; MDAMB231 (breast), 72 hr treatment
Method: as §1, §2

[17] = test system: MDAMB435; conditions: Homo sapiens, MDA-MB-435; MDAMB435 (skin), 72 hr treatment
Method: as §1, §2

[18] = test system: MDAMB436; conditions: Homo sapiens, MDA-MB-436; MDAMB436 (breast), 72 hr treatment
Method: as §1, §2

[19] = test system: MG63; conditions: Homo sapiens, MG-63; MG63 (bone), 72 hr treatment
Method: as §1, §2

[20] = test system: MV4-11; conditions: Homo sapiens; MV4-11 (hematological), 72 hr treatment
Method: as §1, §2

[21] = test system: NCIH358M; conditions: NCI-H358M; NCIH358M (lung), 72 hr treatment
Method: as §1, §2

[22] = test system: NCIH82; conditions: Homo sapiens, NCI-H82; NCIH82 (lung), 72 hr treatment
Method: as §1, §2

[23] = test system: OVCAR4; conditions: Homo sapiens, OVCAR-4; OVCAR4 (ovary), 72 hr treatment
Method: as §1, §2

[24] = test system: PANC1005; conditions: Homo sapiens; PANC1005 (pancreas), 72 hr treatment
Method: as §1, §2

[25] = test system: PBMC; conditions: PBMC (hematological), 72 hr treatment
Method: as §1, §2

[26] = test system: PC3; conditions: Homo sapiens, PC-3; PC3 (prostate), 72 hr treatment
Method: as §1, §2

[27] = test system: PLCPRF5; conditions: Homo sapiens, PLC-PRF-5; PLCPRF5 (liver), 72 hr treatment
Method: as §1, §2

[28] = test system: SF295; conditions: Homo sapiens, SF-295; SF295 (brain), 72 hr treatment
Method: as §1, §2

[29] = test system: THP-1; conditions: Homo sapiens; THP-1 (hematological), 72 hr treatment
Method: as §1, §2

[30] = test system: U87MG; conditions: Homo sapiens, U-87 MG; U87MG (brain), 72 hr treatment
Method: as §1, §2

[31] = test system: UMUC3; conditions: Homo sapiens; UMUC3 (bladder), 72 hr treatment
Method: as §1, §2

[32] = test system: WSU-NHL; conditions: Homo sapiens; WSU-NHL (hematological), 72 hr treatment
Method: as §1, §2

Row | IC50 [1] [µM] | IC50 [2] [µM] | IC50 [3] [µM] | IC50 [4] [µM] | IC50 [5] [µM] | IC50 [6] [µM] | IC50 [7] [µM] | IC50 [8] [µM] | IC50 [9] [µM] | IC50 [10] [µM] | IC50 [11] [µM] | IC50 [12] [µM] | IC50 [13] [µM] | IC50 [14] [µM] | IC50 [15] [µM] | IC50 [16] [µM] | IC50 [17] [µM] | IC50 [18] [µM] | IC50 [19] [µM] | IC50 [20] [µM] | Compound | also measured
1 | < 10 | > 10 | < 10 | < 10 | > 10 | < 10 | < 10 | < 10 | < 10 | > 10 | < 10 | < 10 | > 10 | < 10 | < 10 | > 10 | < 10 | < 10 | > 10 | < 10 | CC(C)(O)Cc1cc(-c2csc(-c3ccc(NS(C)(=O)=O)cc3Cl)c2)ccn1 [Compound I-9004, N-(3-chloro-4-(4-(2-(2-hydroxy-2-methylpropyl)pyridin-4-yl)thiophen-2-yl)phenyl)methanesulfonamide] | IC50 [21]: < 10 µM; IC50 [22]: < 10 µM; IC50 [23]: < 10 µM; IC50 [24]: < 10 µM; IC50 [25]: > 10 µM; IC50 [26]: > 10 µM; IC50 [27]: < 10 µM; IC50 [28]: < 10 µM; IC50 [29]: < 10 µM; IC50 [30]: > 10 µM; IC50 [31]: < 10 µM; IC50 [32]: < 10 µM
2 | < 10 | > 10 | < 10 | < 10 | > 10 | < 10 | < 10 | < 10 | < 10 | < 10 | < 10 | < 10 | > 10 | < 10 | < 10 | > 10 | > 10 | > 10 | > 10 | < 10 | CC(C)(CO)c1cc(-c2csc(-c3ccc(NS(C)(=O)=O)cc3Cl)c2)ccn1 [Compound I-8909, N-(3-chloro-4-(4-(2-(1-hydroxy-2-methylpropan-2-yl)pyridin-4-yl)thiophen-2-yl)phenyl)methanesulfonamide] | IC50 [21]: < 10 µM; IC50 [22]: < 10 µM; IC50 [23]: < 10 µM; IC50 [24]: < 10 µM; IC50 [25]: > 10 µM; IC50 [26]: > 10 µM; IC50 [27]: < 10 µM; IC50 [28]: < 10 µM; IC50 [29]: < 10 µM; IC50 [30]: > 10 µM; IC50 [31]: < 10 µM; IC50 [32]: < 10 µM
3 | < 10 | > 10 | < 10 | < 10 | < 10 | < 10 | < 10 | < 10 | < 10 | > 10 | < 10 | < 10 | < 10 | < 10 | < 10 | > 10 | > 10 | < 10 | > 10 | < 10 | CS(=O)(=O)Nc1ccc(-c2cc(-c3ccnc4c3OCCO4)cs2)c(Cl)c1 [Compound I-9017, N-(3-chloro-4-(4-(2,3-dihydro-[1,4]dioxino[2,3-b]pyridin-8-yl)thiophen-2-yl)phenyl)methanesulfonamide] | IC50 [21]: < 10 µM; IC50 [22]: < 10 µM; IC50 [23]: < 10 µM; IC50 [24]: > 10 µM; IC50 [25]: > 10 µM; IC50 [26]: > 10 µM; IC50 [27]: < 10 µM; IC50 [28]: < 10 µM; IC50 [29]: < 10 µM; IC50 [30]: < 10 µM; IC50 [31]: < 10 µM; IC50 [32]: < 10 µM
